In brackets after ≈: the same amount, converted by molar mass. Read-outs that look alike come from different tables or passages of the source.
How the values were obtained:
S. mansoni adult worms = test: Adult worm drug screen (WHO scoring, WormassayGP2); type: cell-based, Schistosoma mansoni; settings: for Selectivity Index Adult: HepG2 CC50 over adult worm EC50; for EC50: Schistosoma mansoni, adult worms
How it was run: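 Adult worms perfused from MF-1 mice 7 weeks after infection with 180 cercariae. Motility after drug exposure scored on the WHO-TDR 0–4 microscopic scale (0 = no movement, 4 = normal), checked by image-based motion analysis. Deposited eggs counted.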

E. coli ATCC 25922 = test: In vitro antibacterial activity; type: cell-based; settings: Escherichia coli, ATCC25922
S. aureus ATCC 29213 = test: In vitro antibacterial activity; type: cell-based; settings: Staphylococcus aureus, ATCC29213
[1] = tested on: M. smegmatis mc^2 15 ATCC 700084; test: In vitro antibacterial activity; type: cell-based, Mycobacterium smegmatis; settings: Mycolicibacterium smegmatis, ATCC700084
MRSA USA 300 = test: In vitro antibacterial activity; type: cell-based; settings: Staphylococcus aureus
[2] = tested on: Pseudomonas aeruginosa ATCC 27853; test: In vitro antibacterial activity; type: cell-based; settings: ATCC27853
S. epidermidis NTCT11077 = test: In vitro antibacterial activity; type: cell-based; settings: Staphylococcus epidermidis
B. cereus = test: In vitro antibacterial activity; type: cell-based; settings: Bacillus cereus
[3] = tested on: Enterococcus faecalis ATCC 29212; test: Antibacterial MIC (ISO 20776-1); type: cell-based; settings: ATCC29212
From the text: (§1) In vitro Determination of Antibacterial Activity
(§2) Scientific Reports 8 (1), 2018. Bacterial strains of Enterococcus faecalis—ATCC 29212, NCTC 12201, ATCC 51299; Streptococcus pneumoniae—ATCC 49619, 18778, 21394, 21395; Haemophilus influenza—ATCC 49766, 18391, 17428; Staphylococcus aureus—NCTC 12493, ATCC BAA-077, ATCC 700698, 11051; used for testing the compounds, as previously described in “Clinical laboratory testing and in vitro diagnostics test systems—Susceptibility testing of infectious agents and evaluation of performance of antimicrobial susceptibility devices—Part 1: Reference methods for testing the in vitro activity of antimicrobial agentes against bacteria involved in infectious diseases, ISO/FDIS 20776-1:2006(E). All the procedures were carried out in a biosafety containment level 2.

[4] = tested on: Enterococcus faecalis ATCC 51299; test: Antibacterial MIC (ISO 20776-1); type: cell-based; settings: ATCC51299; Enterococcus faecalis ATCC 51299, Vancomycin resistance, vanB
From the text: as §1, §2

[5] = tested on: Enterococcus faecalis NCTC 12201; test: Antibacterial MIC (ISO 20776-1); type: cell-based; settings: NCTC12201; Enterococcus faecalis NCTC 12201, Vancomycin resistance, vanA
From the text: as §1, §2

[6] = tested on: Haemophilus influenzae 17428; test: Antibacterial MIC (ISO 20776-1); type: cell-based; settings: Haemophilus influenzae 17428, Ampicillin resistance, PBP
From the text: as §1, §2

[7] = tested on: Haemophilus influenzae 18391; test: Antibacterial MIC (ISO 20776-1); type: cell-based; settings: Haemophilus influenzae 18391, AMP/COA resistance, PBP/β-lactamase
From the text: as §1, §2

[8] = tested on: Haemophilus influenzae ATCC 49766; test: Antibacterial MIC (ISO 20776-1); type: cell-based; settings: ATCC49766
From the text: as §1, §2

[9] = tested on: Staphylococcus aureus 11051; test: Antibacterial MIC (ISO 20776-1); type: cell-based
From the text: as §1, §2

[10] = tested on: Staphylococcus aureus ATCC 700698; test: Antibacterial MIC (ISO 20776-1); type: cell-based; settings: ATCC700698
From the text: as §1, §2

[11] = tested on: Staphylococcus aureus ATCC BAA-977; test: Antibacterial MIC (ISO 20776-1); type: cell-based; settings: ATCCBAA977
From the text: as §1, §2

[12] = tested on: Staphylococcus aureus NCTC 12493; test: Antibacterial MIC (ISO 20776-1); type: cell-based; settings: NCTC12493
From the text: as §1, §2

[13] = tested on: Streptococcus pneumoniae 18778; test: Antibacterial MIC (ISO 20776-1); type: cell-based
From the text: as §1, §2

[14] = tested on: Streptococcus pneumoniae 21394; test: Antibacterial MIC (ISO 20776-1); type: cell-based
From the text: as §1, §2

[15] = tested on: Streptococcus pneumoniae 21395; test: Antibacterial MIC (ISO 20776-1); type: cell-based
From the text: as §1, §2

[16] = tested on: Streptococcus pneumoniae ATCC 49619; test: Antibacterial MIC (ISO 20776-1); type: cell-based; settings: ATCC49619
From the text: as §1, §2

[17] = Staphylococcus aureus ATCC 700698, Vancomycin resistance, hVISA, read-out: MIC
[18] = Streptococcus pneumoniae, 18778
[19] = Streptococcus pneumoniae, 21394
[20] = Streptococcus pneumoniae, 21395
[21] = E. coli ATCC 25922, read-out: MIC90
[22] = S. aureus ATCC 29213, read-out: MIC90
[23] = M. smegmatis mc^2 15 ATCC 700084, read-out: MIC90
[24] = Pseudomonas aeruginosa ATCC 27853, read-out: MIC90
[25] = S. epidermidis NTCT11077, read-out: MIC90
[26] = Enterococcus faecalis ATCC 29212, read-out: MIC
[27] = Staphylococcus aureus 11051, Tetracycline resistance, read-out: MIC
[28] = Staphylococcus aureus ATCC BAA-977, ERY/CLIND resistance, MLSB, read-out: MIC
[29] = Staphylococcus aureus NCTC 12493, Flucloxacillin resistance, mecA, read-out: MIC
[30] = Streptococcus pneumoniae 18778, ERY, TET resistance, read-out: MIC
[31] = Streptococcus pneumoniae 21394, Penicillin resistance, PBP, read-out: MIC
[32] = Streptococcus pneumoniae 21395, ERY, CLIND resistance, MLSB, read-out: MIC
[33] = Streptococcus pneumoniae ATCC 49619, read-out: MIC

Compound: O=[N+]([O-])c1ccc2nc(Nc3ccc(F)c(C(F)(F)F)c3)c(Nc3ccc(F)c(C(F)(F)F)c3)nc2c1 [Compound 7, N^2, N^3-bis(4-fluoro-3-(trifluoromethyl)phenyl)-6-nitroquinoxaline-2,3-diamine]
- Selectivity Index Adult (S. mansoni adult worms): 705
- EC50 (S. mansoni adult worms): 11 nM
- MIC90 (E. coli ATCC 25922): 62.5 µg/mL (≈ 118 µM)
- MIC90 (S. aureus ATCC 29213): 1.95 µg/mL (≈ 3.68 µM)
- MIC90 [1]: 62.5 µg/mL (≈ 118 µM)
- MIC90 (MRSA USA 300): < 3.91 µg/mL
- MIC90 ([2]; Pseudomonas aeruginosa): > 125 µg/mL
- MIC90 (S. epidermidis NTCT11077; NTCT11077): < 62.5 µg/mL
- MIC90 (B. cereus): 125 µg/mL (≈ 236 µM)
- MIC ([3]; Enterococcus faecalis): 1 µg/mL (≈ 1.89 µM)
- MIC [4]: 0.5 µg/mL (≈ 0.945 µM)
- MIC [5]: 0.5 µg/mL (≈ 0.945 µM)
- MIC [6]: > 64 µg/mL
- MIC [7]: > 64 µg/mL
- MIC [8]: > 64 µg/mL
- MIC ([9]; Staphylococcus aureus, 11051): 0.5 µg/mL (≈ 0.945 µM)
- MIC [10, 17]: 0.5 µg/mL (≈ 0.945 µM)
- MIC ([11]; Staphylococcus aureus): 0.5 µg/mL (≈ 0.945 µM)
- MIC ([12]; Staphylococcus aureus): 0.5 µg/mL (≈ 0.945 µM)
- MIC [13, 18]: 32 µg/mL (≈ 60.5 µM)
- MIC [14, 19]: 32 µg/mL (≈ 60.5 µM)
- MIC [15, 20]: 8 µg/mL (≈ 15.1 µM)
- MIC ([16]; Streptococcus pneumoniae): 8 µg/mL (≈ 15.1 µM)

Compound: O=[N+]([O-])c1ccc2nc(Nc3ccc(C(F)(F)F)cc3)c(Nc3ccc(C(F)(F)F)cc3)nc2c1 [Compound 11, 6-nitro-N^2, N^3-bis(4-(trifluoromethyl)phenyl)quinoxaline-2,3-diamine]
- Selectivity Index Adult (S. mansoni adult worms): 2320
- EC50 (S. mansoni adult worms): 6.7 nM
- MIC90 (E. coli ATCC 25922; [21]): > 125 µg/mL
- MIC90 (S. aureus ATCC 29213; [22]): 0.98 µg/mL (≈ 1.99 µM)
- MIC90 [1, 23]: 31.2 µg/mL (≈ 63.3 µM)
- MIC90 (MRSA USA 300): < 3.91 µg/mL
- MIC90 [2, 24]: > 125 µg/mL
- MIC90 (S. epidermidis NTCT11077; [25]): < 62.5 µg/mL
- MIC90 (B. cereus; B. cereus, read-out: MIC90): < 62.5 µg/mL
- MIC [3, 26]: 0.06 µg/mL (≈ 0.122 µM)
- MIC [4]: 0.25 µg/mL (≈ 0.507 µM)
- MIC [5]: 0.06 µg/mL (≈ 0.122 µM)
- MIC [6]: 16 µg/mL (≈ 32.4 µM)
- MIC [7]: 16 µg/mL (≈ 32.4 µM)
- MIC [8]: 16 µg/mL (≈ 32.4 µM)
- MIC [9, 27]: 0.125 µg/mL (≈ 0.253 µM)
- MIC [10, 17]: 0.125 µg/mL (≈ 0.253 µM)
- MIC [11, 28]: 0.125 µg/mL (≈ 0.253 µM)
- MIC [12, 29]: 0.125 µg/mL (≈ 0.253 µM)
- MIC [13, 30]: 4 µg/mL (≈ 8.11 µM)
- MIC [14, 31]: 4 µg/mL (≈ 8.11 µM)
- MIC [15, 32]: 2 µg/mL (≈ 4.05 µM)
- MIC [16, 33]: 2 µg/mL (≈ 4.05 µM)

Compound: O=[N+]([O-])c1ccc2nc(Nc3cccc(Cl)c3)c(Nc3cccc(Cl)c3)nc2c1 [Compound 5, N^2, N^3-bis(3-chlorophenyl)-6-nitroquinoxaline-2,3-diamine]
- Selectivity Index Adult (S. mansoni adult worms): 568
- EC50 (S. mansoni adult worms): 12 nM
- MIC90 (E. coli ATCC 25922): > 125 µg/mL
- MIC90 (S. aureus ATCC 29213; [22]): < 3.91 µg/mL
- MIC90 [1]: > 125 µg/mL
- MIC90 (MRSA USA 300): 3.91 µg/mL (≈ 9.17 µM)
- MIC90 ([2]; Pseudomonas aeruginosa): > 125 µg/mL
- MIC90 (S. epidermidis NTCT11077; NTCT11077): < 62.5 µg/mL
- MIC90 (B. cereus): 125 µg/mL (≈ 293 µM)
- MIC ([3]; Enterococcus faecalis): 0.25 µg/mL (≈ 0.586 µM)
- MIC [4]: 0.25 µg/mL (≈ 0.586 µM)
- MIC [5]: 0.06 µg/mL (≈ 0.141 µM)
- MIC [6]: 8 µg/mL (≈ 18.8 µM)
- MIC [7]: 8 µg/mL (≈ 18.8 µM)
- MIC [8]: 4 µg/mL (≈ 9.38 µM)
- MIC ([9]; Staphylococcus aureus, 11051): 0.125 µg/mL (≈ 0.293 µM)
- MIC ([10]; Staphylococcus aureus): 0.125 µg/mL (≈ 0.293 µM)
- MIC ([11]; Staphylococcus aureus): 0.125 µg/mL (≈ 0.293 µM)
- MIC ([12]; Staphylococcus aureus): 0.06 µg/mL (≈ 0.141 µM)
- MIC [13, 18]: 8 µg/mL (≈ 18.8 µM)
- MIC [14, 19]: 4 µg/mL (≈ 9.38 µM)
- MIC [15, 20]: 4 µg/mL (≈ 9.38 µM)
- MIC ([16]; Streptococcus pneumoniae): 4 µg/mL (≈ 9.38 µM)

Compound: COc1ccc(Nc2nc3ccc([N+](=O)[O-])cc3nc2Nc2ccc(OC)c(C(F)(F)F)c2)cc1C(F)(F)F [Compound 12, N^2, N^3-bis(4-methoxy-3-(tritluoromethyl)phenyl)-6-nitroquinoxaline-2,3-diamine]
- Selectivity Index Adult (S. mansoni adult worms): 664
- EC50 (S. mansoni adult worms): 8.5 nM
- MIC90 (E. coli ATCC 25922; [21]): > 125 µg/mL
- MIC90 (S. aureus ATCC 29213; [22]): 62.5 µg/mL (≈ 113 µM)
- MIC90 [1, 23]: > 125 µg/mL
- MIC90 (MRSA USA 300): 15.6 µg/mL (≈ 28.2 µM)
- MIC90 [2, 24]: > 125 µg/mL
- MIC90 (S. epidermidis NTCT11077; [25]): < 62.5 µg/mL
- MIC90 (B. cereus; B. cereus, read-out: MIC90): < 62.5 µg/mL
- MIC [3, 26]: 0.5 µg/mL (≈ 0.903 µM)
- MIC [4]: 1 µg/mL (≈ 1.81 µM)
- MIC [5]: 0.5 µg/mL (≈ 0.903 µM)
- MIC [6]: > 128 µg/mL
- MIC [7]: 64 µg/mL (≈ 116 µM)
- MIC [8]: 64 µg/mL (≈ 116 µM)
- MIC [9, 27]: 2 µg/mL (≈ 3.61 µM)
- MIC [10, 17]: 1 µg/mL (≈ 1.81 µM)
- MIC [11, 28]: 1 µg/mL (≈ 1.81 µM)
- MIC [12, 29]: 1 µg/mL (≈ 1.81 µM)
- MIC [13, 30]: 16 µg/mL (≈ 28.9 µM)
- MIC [14, 31]: 8 µg/mL (≈ 14.5 µM)
- MIC [15, 32]: 8 µg/mL (≈ 14.5 µM)
- MIC [16, 33]: 8 µg/mL (≈ 14.5 µM)

— US12503448B2, “Antibacterial and antiparasitic quinoxaline-2,3-diamine derivatives” (University College Cardiff Consultants Limited, priority 2019, dated 2025)
